Source: the supplement of paper PMC4121296
± gives the standard deviation of the averaged measurements.

Legend:
Conditions in all cases: exposure: 5-72 hpf
[1] = system: Danio rerio embryo (fli1:egfp); experiment: heart rate at 72 hpf (beats per minute); higher = faster heart rate
Experimental: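 fli1:egfp zebrafish embryos exposed 5-72 hpf to chemical (0.05-50 µM, 0.1% DMSO) in 384-well plates; heart rate at 72 hpf quantified from stream acquisitions by semi-automated MetaXpress journal (peak counting); only embryos in concentrations passing survival/body-length criteria analyzed.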

[2] = system: Danio rerio embryo (fli1:egfp); experiment: body length at 72 hpf (µm); higher = longer body (less growth inhibition)
Experimental: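 Transgenic fli1:egfp zebrafish embryos (one per well, 384-well plate) exposed statically from 5 to 72 hpf at 28 °C to chemical (0.05-50 µM, 0.1% DMSO); at 72 hpf anesthetized and imaged on ImageXpress; body length of live, hatched, correctly oriented embryos measured by automated MetaXpress journal. Dead/unhatched/misoriented embryos have no value.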

[3] = system: Danio rerio embryo (fli1:egfp); experiment: pericardial area at 72 hpf (image area units (not stated)); higher = larger pericardial area (edema)
Experimental: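 fli1:egfp zebrafish embryos exposed 5-72 hpf to chemical (0.05-50 µM, 0.1% DMSO); pericardial area at 72 hpf measured by semi-automated MetaXpress journal (increase indicates edema).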

[4] = system: Danio rerio embryo (fli1:egfp); experiment: arterial (dorsal aorta) circulation score at 72 hpf (normalized DA-Max (arbitrary units)); higher = more circulation
Experimental: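 fli1:egfp zebrafish embryos exposed 5-72 hpf to chemical (0.05-50 µM, 0.1% DMSO); arterial circulation at 72 hpf quantified from stream acquisitions of the dorsal aorta by FFT-based analysis (DA-Max, normalized dorsal aorta signal); only concentrations passing survival/body-length criteria analyzed.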

[5] = system: Danio rerio embryo (fli1:egfp); experiment: intersegmental vessel area normalized to body length at 72 hpf (ISV area / body length (normalized units)); higher = more vessel area
Experimental: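 fli1:egfp zebrafish embryos exposed 5-72 hpf to chemical (0.05-50 µM, 0.1% DMSO); intersegmental vessel (ISV) eGFP area quantified by MetaXpress journal at 72 hpf and normalized to body length.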

C[C@@]1(c2ccc(Oc3ccccc3)cc2)OC(=O)N(Nc2ccccc2)C1=O (racemic) [Famoxadone]
Conditions | arterial, [4] | body length at 72 hpf, [2] | heart rate at 72 hpf, [1] | intersegmental vessel area normalized, [5] | pericardial area at 72 hpf, [3]
0.05 µM | 15.7 ± 7 | 2980 ± 83 | 172 ± 15 | 72.5 ± 23 | 13400 ± 4100
0.098 µM | 14.7 ± 7.2 | 2990 ± 84 | 180 ± 26 | 84.9 ± 20 | 13700 ± 3400
0.195 µM | 14.5 ± 4.1 | 2970 ± 93 | 188 ± 27 | 77.8 ± 18 | 13500 ± 3100
0.39 µM | 12.7 ± 3.2 | 2970 ± 100 | 177 ± 20 | 75.4 ± 23 | 12100 ± 3800
0.78 µM | 14.9 ± 5.7 | 2940 ± 66 | 160 ± 36 | 80 ± 22 | 15500 ± 5200

O=C(O)c1cc(Oc2ccc(C(F)(F)F)cc2Cl)ccc1[N+](=O)[O-] [Acifluorfen]
Conditions | arterial, [4] | body length at 72 hpf, [2] | heart rate at 72 hpf, [1] | intersegmental vessel area normalized, [5] | pericardial area at 72 hpf, [3]
0.05 µM | 16.3 ± 4.7 | 2970 ± 130 | 168 ± 26 | 81.7 ± 14 | 14900 ± 3900
0.098 µM | 14.7 ± 5.2 | 3000 ± 110 | 169 ± 26 | 82.8 ± 22 | 17600 ± 4700
0.195 µM | 14.4 ± 5.3 | 3030 ± 110 | 166 ± 24 | 89.2 ± 14 | 16700 ± 4900
0.39 µM | 15.6 ± 5 | 3000 ± 150 | 168 ± 28 | 82.3 ± 18 | 16700 ± 6000
0.78 µM | 14.4 ± 3.5 | 2970 ± 140 | 167 ± 11 | 92.9 ± 18 | 15600 ± 4400
1.56 µM | 15.9 ± 4.6 | 3040 ± 140 | 164 ± 18 | 82.3 ± 21 | 16400 ± 4600
3.125 µM | 15.2 ± 5.1 | 3030 ± 95 | 164 ± 28 | 85.2 ± 19 | 17500 ± 4900
6.25 µM | 14.2 ± 4.7 | 3030 ± 140 | 177 ± 30 | 89.2 ± 16 | 19400 ± 6100
12.5 µM | 16.1 ± 6 | 3020 ± 110 | 175 ± 26 | 89.5 ± 15 | 15900 ± 3600
25 µM | 15.6 ± 6.2 | 2960 ± 130 | 175 ± 30 | 89.3 ± 22 | 15500 ± 4800
50 µM | 14.5 ± 6.2 | 2980 ± 78 | 180 ± 26 | 99.8 ± 9.1 | 15800 ± 5300

C=CCOC(=O)C(C)(C)OC(=O)c1cc(-n2c(=O)cc(C(F)(F)F)n(C)c2=O)ccc1Cl [Butafenacil]
Conditions | arterial, [4] | body length at 72 hpf, [2] | heart rate at 72 hpf, [1] | intersegmental vessel area normalized, [5] | pericardial area at 72 hpf, [3]
0.05 µM | 11.5 ± 5.8 | 2960 ± 130 | 182 ± 17 | 72.8 ± 25 | 15900 ± 4600
0.098 µM | 11.8 ± 4.2 | 2990 ± 130 | 180 ± 14 | 61.6 ± 25 | 14800 ± 3900
0.195 µM | 10.1 ± 4 | 2960 ± 260 | 191 ± 24 | 70.6 ± 21 | 16200 ± 3400
0.39 µM | 7.84 ± 2.8 | 3000 ± 120 | 185 ± 24 | 68.9 ± 18 | 15700 ± 4800
0.78 µM | 5.12 ± 1.8 | 2970 ± 230 | 172 ± 14 | 55.9 ± 20 | 18900 ± 5500
1.56 µM | 5.32 ± 3 | 2970 ± 110 | 168 ± 17 | 61.2 ± 22 | 18800 ± 5100
3.125 µM | 5.76 ± 2.2 | 2980 ± 110 | 175 ± 22 | 69.3 ± 23 | 18700 ± 5900
6.25 µM | 4.56 ± 2 | 3010 ± 110 | 184 ± 54 | 72.8 ± 25 | 28100 ± 12000
12.5 µM | 3.81 ± 1.2 | 2860 ± 200 | 163 ± 27 | 81.2 ± 22 | 36500 ± 14000

CCOC(=O)C(Cl)Cc1cc(-n2nc(C)n(C(F)F)c2=O)c(F)cc1Cl (stereo not given) [Carfentrazone-ethyl]
Conditions | arterial, [4] | body length at 72 hpf, [2] | heart rate at 72 hpf, [1] | intersegmental vessel area normalized, [5] | pericardial area at 72 hpf, [3]
0.05 µM | 13.5 ± 3.8 | 2950 ± 99 | 186 ± 29 | 53.3 ± 20 | 13800 ± 2300
0.098 µM | 13.1 ± 4.4 | 2970 ± 120 | 172 ± 16 | 55.6 ± 20 | 15600 ± 6700
0.195 µM | 14.4 ± 5.3 | 2980 ± 72 | 187 ± 26 | 64.4 ± 27 | 15200 ± 4100
0.39 µM | 12.6 ± 5.2 | 2990 ± 76 | 190 ± 22 | 61.5 ± 25 | 17900 ± 7800
0.78 µM | 12.8 ± 5.5 | 3030 ± 49 | 194 ± 17 | 65.4 ± 22 | 17700 ± 6600
1.56 µM | 11.6 ± 3.9 | 2950 ± 91 | 186 ± 19 | 56.7 ± 19 | 18200 ± 7800
3.125 µM | 8.55 ± 5.2 | 2940 ± 210 | 190 ± 29 | 64.7 ± 16 | 19600 ± 9500
6.25 µM | 8.33 ± 3.2 | 2970 ± 120 | 184 ± 20 | 67.9 ± 24 | 25600 ± 9600

N#Cc1c(Cl)c(Cl)c(Cl)c(C#N)c1Cl [Chlorothalonil]
Conditions | arterial, [4] | body length at 72 hpf, [2] | heart rate at 72 hpf, [1] | intersegmental vessel area normalized, [5] | pericardial area at 72 hpf, [3]
0.05 µM | 11.6 ± 4.9 | 2960 ± 87 | 138 ± 22 | 70.8 ± 19 | 17600 ± 6300
0.098 µM | 10.8 ± 4.5 | 2990 ± 100 | 140 ± 26 | 78.4 ± 17 | 24100 ± 13000
0.195 µM | 10.3 ± 5.3 | 2940 ± 150 | 154 ± 29 | 75.7 ± 17 | 23900 ± 12000
0.39 µM | 12.3 ± 6.5 | 2880 ± 100 | 153 ± 26 | 80.7 ± 14 | 22000 ± 7200
